Patent publication US9205073B2, “Method for treating virus infection using derivative of aniline” (CHINA MEDICAL UNIVERSITY, priority 2014, dated 2015)

What was measured:
[1] = MTT assay, cell survival / CC50 in TE671 cells; format: cell-based; conditions: human, read-out: concentration of 50% cytotoxicity (CC50)
Experimental: In this example, 3-(4,5-dimethylthiazol-2-yl)-2,5-diphenyl tetrazolium bromide (MTT) was used to determine if the survival rate of BHK-21 cells, TE671cells and RD cells would be influenced when being treated with different concentrations of compound 1 prepared in Example 1. The concentration of 50% cytotoxicity (CC50) of compound 1 in BHK-21 cells, TE671cells and RD cells was also calculated.
MTT is a water-soluble tetrazolium salt which can react in the mitochondrial respiratory chain in living cells to metabolize and reduce the tetrazolium bromide shown in the structure of MTT and to form an water-insoluble purple crystal formazan under the reaction of succinate dehydrogenase (SDH) and cytochrome c (cyt c). The amount of the produced crystal is directly proportional to the number of living cells (because the SDH will disappear from dead cells, and thus, the MTT cannot be reduced). Furthermore, a mitochondrium is an organelle in cells that is most sensitive to the environment, and thus, the MTT assay can serve as a marker for the survival rate of cells treated by the drug.
BHK-21 cells, TE671cells and RD cells were cultured in a 96-well culture plate, respectively, with an initial density of 3×10^3 per well, and with 100 μl of 2% FBS-containing MEM medium per well. […] The absorbances of the samples were measured by ELISA at a wavelength of 570/630 nm.

JEV T1P1 [2] = assay: Apoptosis test (Annexin V/PI flow cytometry), JEV T1P1-infected TE671 cells; format: cell-based, Japanese encephalitis virus; conditions: JEV T1P1 infection 36 hours, compound 125 μM; infected without compound 20.1%
Experimental: (§1) BHK-21 cells and/or TE671cells were separately cultured in a 24-well culture plate, with an initial density of 3×10^4 per well, and with 1 ml of 2% FBS-containing MEM medium per well. The cells were incubated in an incubator (37° C., 5% CO2) overnight, and the medium was removed until the cells adhered to the plate. Then, fresh 2% FBS-containing MEM medium was simultaneously added into each well of the culture plate. The cells were infected with a JEV T1P1 virus strain, wherein the amount of JEV T1P1 used to infect BHK-21 cells was a multiplicity of infection (M.O.I.)=0.1, and the amount of JEV T1P1 used to infect TE671 cells was M.O.I.=0.05. Different concentrations of compound 1 (final concentrations were 0, 2.5, 25 and 125 μM, respectively) were added into different wells. The culture plate was placed into an incubator (37° C., 5% CO2) and maintained therein.
BHK-21 cells and TE 671 cells were washed with PBS after being infected with the JEV T1P1 virus strain for 36 hours in the above experiment (1). Then, PBS was removed. Trypsin-EDTA (150 μl) was added into each well. The cells were incubated in an incubator at 37° C. for 3 minutes. Then, 1 ml MEM medium was added into each well to neutralize EDTA. […] The cells were maintained in the dark for 5 to 10 minutes, and then analyzed by flow cytomerty.

JEV T1P1 [3] = assay: Viral plaque test, JEV T1P1 replication in TE671 cells; format: cell-based, Japanese encephalitis virus; conditions: treated for 36 or 48 hours
Experimental: as §1, with “therein. […]” for “therein.”
BHK-21 cells were cultured in a 6-well culture plate at an initial density of 3×10^5 per well with 2 ml of 2% FBS-containing MEM medium per well. […] The cells were washed with clear water, and then the viral plaques were counted to calculate the virus titer.

EV71 = assay: Enterovirus infection-induced cytopathic effect / cell survival in RD cells with interferon; format: cell-based, enterovirus type 71; conditions: for Cell survival rate: 36 hours
Experimental: The RD cells were cultured in a 24-well culture plate at an initial density of 3×10^4 per well with 1 ml of 2% FBS-containing MEM medium per well. The cells were incubated in an incubator (37° C., 5% CO2) overnight. The medium was removed until the cells adhered to the plate. 1 ml of fresh 2% FBS-containing MEM medium was simultaneously added into each well. The RD cells were infected with an EV71 virus strain (M.O.I.=0.1). […] The RD cells were incubated in an incubator (37° C., 5% CO2) for 36 hours, and then their morphology was observed by photography. In addition, 200 μl of culture medium supernatant was collected from each well and stored at −80° C. for conducting the viral plaque test of Example 12.

CCOC(=O)C1=C(Nc2cc(C)cc(C)c2)OCC1=O [Compound 1, ethyl 2-(3′,5′-dimethylanilino)-4-oxo-4,5-dihydrofuran-3-carboxylate]
CC50 at 48 h [1]: 189 µM
ratio of TE671 cells getting into late apoptosis (JEV T1P1 [2]): 4.7%
replication of JEV T1P1 (virus titer) (JEV T1P1 [3]): significantly decreased
Cell survival rate (EV71; EV71 M.O.I.=0.1, IFN-β 100 unit/ml + Compound 1 2.5 μM): 46.9%
Cell survival rate (EV71; EV71 M.O.I.=0.1, IFN-β 100 unit/ml + Compound 1 25 μM): 55.86%
Cell survival rate (EV71; EV71 M.O.I.=0.1, IFN-β 100 unit/ml + Compound 1 125 μM): 83.3%
EV71-induced cytopathic effect (EV71; infected 36 hours, combination of compound 1 and 100 units/ml of IFN-β): effectively inhibited
Cell survival rate (EV71; no EV71, no IFN-β, Compound 1 125 μM): 86.85%
